Legend:
gastric acid secretion = test: Action on Gastric Acid Secretion (Shay Rat, pylorus ligation); type: in vivo, Sprague-Dawley strain male rats; details: intraduodenal immediately after pylorus ligation, 4 h gastric juice
Procedure: (§1) For the pharmocological examination of the compounds of the present invention, the following tests were carried out to confirm the effect of inhibiting gastric acid secretion and the protective effect of gastric mucosa. For the toxicity, the test compound was orally administered to six mice of one group to determine the toxicity (LD50) thereof.
1. Action on Gastric Acid Secretion (Shay Rat)
Sprague-Dawley strain male rats weighing 200-240 g were used after being starved for 24 hours (water was given ad libitum). Under ether anesthesia, the abdomen was cut and, after ligation of the pylorus part, then closed, and the rat was starved of both food and water. Four hours later the stomach was removed under ether anesthesia and the gastric juice was collected. The gastric juice collected was centrifuged at 3000 rpm for 10 minutes, the volume of the supernatant was measured, and the acidity was determined by titrating 1 ml of the gastric juice with 0.1 N sodium hydroxide solution to pH 7.0. Further, from the amount of gastric juice and the acidity, the acid output (μEg/4h) was calculated; the percentage of inhibition was determined from the following formula, and the percentage of inhibition versus dose (mg/kg) was then plotted on a semi-logarithmic graph to determine the ED50 value. Each test drug was suspended in physiological saline with a few drops of Tween 80 (available from Nakarai Chemicals Ltd.,) and administered into the duodenum at a proportion of 0.2 ml/100 g-body weight immediately after pylorus ligation. [formula]

[1] = Action on Hydrochloric Acid Plus Ethanol Induced Ulcer; type: in vivo, Sprague-Dawley strain male rats; details: rat, oral 30 minutes before HCl-ethanol
Procedure: 2. Action on Hydrochloric Acid Plus Ethanol Induced Ulcer
Sprague-Dawley strain male rats weighing 200-240 g were used after starving for 24 hours. To each rat, a 60% ethanolic solution containing 150 mM of hydrochloric acid was administered orally at a volume of 0.5 ml/100 g-body weight, and the stomach was removed under ether anesthesia 1 hour later. Into the stomach, 10 ml of a 2% formalin solution was injected, and further the stomach was then immersed in a 2% formalin solution for 15 minutes to fix the inner and outer wall of the stomach. The stomach was cut open along the greater curvature, and the length of the damage generated at the glandular portion of the stomach was measured, and the sum of the lengths of the damages of gastric mucosa per one rat was defined as the lesion index (mm), which was compared with a control group to calculate the percentage of inhibition according to the formula shown below, and then the percentage of inhibition versus dose (mg/kg) was plotted on a semi-logarithmic graph to determine the ED50 value. Each test drug was suspended in physiological saline a few drops of Tween 80 and administered orally 30 minutes before administration of the hydrochloric acid ethanolic solution. [formula]

Toxicity (LD50) in mouse = details: in vivo, oral, six mice of one group
Procedure: as §1

[2] = Anti-Duodenal Ulcer Action; type: in vivo, Sprague-Dawley-strain male rats; details: rat, indomethacin plus histamine 2HCl
Procedure: 6. Anti-Duodenal Ulcer Action
Sprague-Dawley-strain male rats weighing 200-220 g were starved for 24 hours, and indomethacin (suspended in saline with Tween 80) and histamine 2HCl (dissolved in 10% gelatin solution) were administered following the time schedule shown below. Then, under ether anesthesis, stomach and the duodenal part were removed and 2% formalin solution was injected thereinto. Further, they were immersed in 2% formalin solution for about 15 minutes, and then cut open along the greater curvature to the duodenal part, and the number and area (length in the case of linear ulcer) of the mucosa damages generated at the Corpus, Antrum and Duodenum respectively were measured under stereoscopic microscope (×10), and the sum of the area (mm^2) per one rat was defined as lesion index. The ED50 value was calculated as described before. [drawing 32]

[3] = Anti-Aspirin Ulcer Action; type: in vivo, Sprague-Dawley-strain male rats; details: rat, into the duodenum, aspirin 150 mg/kg oral, 5 hours
Procedure: 3. Anti-Aspirin Ulcer Action
Sprague-Dawley-strain male rats weighing about 220 g were starved for 24 hours, and with pylorus being ligated under ether anesthesia, the test drug was administered into the duodenum. After recovery from ether anesthesia, 150 mg/kg of aspirin (suspended in 1% CMC) was orally administered. Five hours later, the stomach was removed under ether anesthesia, 10 ml of 2% formalin solution was injected into the stomach, and the stomach was then immersed in a 2% formalin solution for about 15 minutes. The stomach was then cut open along the greater curvature and the length of the damage generated at the glandular portion of the stomach was measured under dissecting microscope (×10) and the sum of the lengths per one rat (mm) was defined as the lesion index. The ED50 value was calculated as described before.

[4] = Anti-Indomethacin Ulcer Action; type: in vivo, Sprague-Dawley-strain male rats; details: rat, 30 minutes before indomethacin 30 mg/kg s.c., 5 hours
Procedure: 4. Anti-Indomethacin Ulcer Action
Sprague-Dawley-strain male rats weighing about 200-220 g were starved for 24 hours, and 30 mg/kg of indomethacin (suspended in 1% CMC) was administered subcutaneously. After five hours, the stomach was removed under ether anesthesia, and subsequently the same treatment as in the case of an aspirin ulcer was carried out and the sum of the length (mm) of the damage produced at the glandular portion of the stomach per one rat was defined as lesion index. The test drug was administered 30 minutes before administration of indomethacin. The ED50 value was calculated as described before.

Anti Stress Ulcer = type: in vivo, Sprague-Dawley-strain male rats; details: rat, oral 30 minutes before water immersion stress at 23° C., 5 hours; read-out: Action on anti-stress ulcer (ED50)
Procedure: Sprague-Dawley-strain male rats weighing about 240-260 g were starved for 24 hours, and, 30 minutes after oral administration of the test drug, the rat was placed in a stress cage and stress was loaded by immersing the rat into a water tank maintained at 23° C. to the xiphisternum of the chest. Five hours later, the stomach was removed under ether anesthesia, the same treatment as in the case of aspirin ulcer was applied, and the sum of the lengths (mm) of the mucosa damage generated at the glandular portion of the stomach was defined as the lesion index. The ED50 value was calculated as described before.

Toxicity (LD50) in rat = details: in vivo, oral

SMILES: CCOC(=O)C(C(=S)NC)c1ccccn1 (stereo not drawn) [Example 1, ethyl 2-methylthiocarbamoyl-2-(2-pyridyl)acetate]
- ED50 (gastric acid secretion): 2.4 mg/kg

SMILES: CCNC(=S)C(C(=O)OCC)c1ccccn1 (stereo not drawn) [Example 2, Ethyl 2-ethylthiocarbamoyl-2-(2-pyridyl)acetate]
- ED50 [1]: 6.8 mg/kg
- ED50 (gastric acid secretion): 4 mg/kg

SMILES: C=CCNC(=S)C(C(=O)OCC)c1ccccn1 (stereo not drawn) [Example 3, Ethyl 2-allylthiocarbamoyl-2-(2-pyridyl)acetate]
- ED50 (gastric acid secretion): 3.8 mg/kg

SMILES: CCOC(=O)C(C(=S)NC1CCCCC1)c1ccccn1 (stereo not drawn) [Example 4, Ethyl 2-cyclohexylthiocarbamoyl-2-(2-pyridyl)acetate]
- ED50 (gastric acid secretion): 15.5 mg/kg

SMILES: CCOC(=O)C(C(=S)Nc1ccccc1)c1ccccn1 (stereo not drawn) [Example 6, Ethyl 2-phenylthiocarbamoyl-2-(2-pyridyl)acetate]
- LD50 (Toxicity (LD50) in mouse): > 1300 mg/kg
- ED50 [1]: 3.4 mg/kg
- ED50 (gastric acid secretion): 9.3 mg/kg

SMILES: CNC(=S)C(C(=O)OCc1ccccc1)c1ccccn1 (stereo not drawn) [Example 8, Benzyl 2-methylthiocarbamoyl-2-(2-pyridyl)acetate]
- ED50 (gastric acid secretion): 12.3 mg/kg

SMILES: CNC(=S)C(C(=O)OCC=C(C)C)c1ccccn1 (stereo not drawn) [Example 9, Prenyl 2-methylthiocarbamoyl-2-(2-pyridyl)acetate]
- ED50 [1]: 1.1 mg/kg
- ED50 (gastric acid secretion): 3.5 mg/kg

SMILES: C=CCNC(=S)C(C(=O)OCC=C(C)C)c1ccccn1 (stereo not drawn) [Example 10, Prenyl 2-allylthiocarbamoyl-2-(2-pyridyl)acetate]
- ED50 [1]: 7.7 mg/kg
- ED50 (gastric acid secretion): 4.4 mg/kg

SMILES: CNC(=S)C(C(=O)OC/C=C(\C)CCC=C(C)C)c1ccccn1 (stereo not drawn) [Example 12, Geranyl 2-methylthiocarbamoyl-2-(2-pyridyl)acetate]
- LD50 (Toxicity (LD50) in mouse): > 1300 mg/kg
- ED50 [2]: 0.6 mg/kg
- ED50 [1]: 1.4 mg/kg
- ED50 [3]: 0.8 mg/kg
- ED50 [4]: 0.7 mg/kg
- ED50 (gastric acid secretion): 5 mg/kg
- ED50 (Anti Stress Ulcer): 5.3 mg/kg

SMILES: CC(C)=CCC/C(C)=C/COC(=O)C(C(=S)Nc1ccccc1)c1ccccn1 (stereo not drawn) [Example 14, Geranyl 2-phenylthiocarbamoyl-2-(2-pyridyl)acetate]
- ED50 [1]: 3.7 mg/kg
- ED50 (gastric acid secretion): 36 mg/kg

SMILES: CNC(=S)C(C(=O)OC/C=C(\C)CC/C=C(\C)CCC=C(C)C)c1ccccn1 (stereo not drawn) [Example 15, Farnesyl 2-methylthiocarbamoyl-2-(2-pyridyl)acetate]
- ED50 [1]: 0.3 mg/kg
- ED50 (gastric acid secretion): 5.6 mg/kg

SMILES: CC(C)=CCC/C(C)=C/COC(=O)C(C(N)=S)c1ccccn1 (stereo not drawn) [Example 17, geranyl 2-thiocarbamoyl-2-(2-pyridyl)acetate]
- LD50 (Toxicity (LD50) in rat): > 2860 mg/kg
- LD50 (Toxicity (LD50) in mouse): > 2000 mg/kg
- ED50 [2]: 1 mg/kg
- ED50 [1]: 2.8 mg/kg
- ED50 [3]: 1 mg/kg
- ED50 (gastric acid secretion): 5.3 mg/kg
- ED50 (Anti Stress Ulcer): 4.2 mg/kg

SMILES: CC(C)=CCOC(=O)C(C(N)=S)c1ccccn1 (stereo not drawn) [Example 18, Prenyl 2-thiocarbamoyl-2-(2-pyridyl)acetate]
- ED50 [1]: 4.5 mg/kg
- ED50 (gastric acid secretion): 7.8 mg/kg

SMILES: CCCNC(=S)C(C(=O)OCC)c1ccccn1 (stereo not drawn) [Example 19, Ethyl 2-propylthiocarbamoyl-2-(2-pyridyl)acetate]
- ED50 (gastric acid secretion): 3.8 mg/kg

SMILES: CCOC(=O)C(C(=S)NCCCO)c1ccccn1 (stereo not drawn) [Example 20, Ethyl 2-(3-hydroxypropyl)thiocarbamoyl-2(2-pyridyl)acetate]
- ED50 [1]: 2.3 mg/kg

SMILES: CCOC(=O)C(C(=S)NCc1ccccn1)c1ccccn1 (stereo not drawn) [Example 24, Ethyl 2-(2-pyridyl)methylthiocarbamoyl-2(2-pyridyl)acetate]
- ED50 (gastric acid secretion): 6.4 mg/kg

From patent US4738977A, “2-pyridylacetic acid derivatives, pharmaceutical composition containing the same and their use in treating ulcers” (Suntory Limited, priority 1985, dated 1988)
